Assay results published in US20230310428A1, “EGFR INHIBITOR AND PREPARATION METHOD AND USE THEREOF” (HONGYUN BIOTECH CO., LTD., priority 2020, published 2023).

How the values were obtained:
Assay in all cases: Growth inhibitory activity of compounds on BaF3 cell lines stably transfected with kinase (MTS, 48 h)
Format in all cases: cell-based
[1] = target: T1, various mutants of kinase EGFR (BaF3 cell lines stably transfected with kinase) (Homo sapiens, UniProt P00533, T790M, form not given); conditions: BaF3 cells stably transfected with EGFR Δ19Del/T790M, read-out: IC50, growth inhibition, Δ19Del/T790M
T1 construct: other: BaF3 cells stably transfected with EGFR Δ19Del/T790M; MTS, 48 h; other: BaF3 cell line stably transfected with EGFR Δ19Del/T790M; MTS, 48
Protocol: (§1) The activity of compounds against various mutants of kinase EGFR was evaluated by their effect of inhibiting growth of BaF3 cell lines stably transfected with kinase. The specific test method was given as follows:
(§2) 1) Culture medium: DMEM (Dulbecco’s modified eagle medium) or RPMI 1640 (containing 10% fetal bovine serum, 100 µg/mL ampicillin, 100 µg/mL streptomycin).
(§3) 2) Reagent: MTS reaction solution (containing 2 mg/mL of MTS [3-(4,5-dimethylthiazol-2-yl)-5-(3-carboxymethoxyphenyl)-2-(4-sulfophenyl)-2H-tetrazoliu m, inner Salt]; 100 µg/mL of PES ([…])).
(§4) 3) Compound test: cells were incubated into a 96-well culture plate, the volume of cytosol was 90 µL, and then 10 µL of the compound at each gradient concentration was added. That is, the highest concentration was 10 µM, which was diluted stepwise by ⅓, and 8 concentration points were set in total; 0.1% DMSO (dimethyl sulfoxide) was contained in the system. The cell plate with uniformly mixed compound was cultured in a cell culture incubator (37° C.; 5% CO2) for 48 h, then 20 µL of MTS reaction solution was added, uniformly mixed and incubated in the cell culture incubator (37° C.; 5% CO2) for 1-4 h. OD values at 490 nm were measured by a microplate reader (VARIOSKAN FLASH, Thermo). Two parallels were set in each group of experiments, with 0.1% (a final concentration) DMSO as a negative control, and a culture medium without cells and compounds as a blank control. The cell growth inhibition rate was calculated by the following formula: […]
(§5) 4) IC50 calculation: The semi-inhibitory concentration of the compounds acting on cells was calculated using GradPad Prism 5 software according to the measured cell growth inhibition rate.

[2] = target: T2, various mutants of kinase EGFR (BaF3 cell lines stably transfected with kinase) (Homo sapiens, UniProt P00533, T790M/C797S, form not given); conditions: BaF3 cells stably transfected with EGFR Δ19Del/T790M/C797S, read-out: IC50, growth inhibition, Δ19Del/T790M/C797S
T2 construct: other: BaF3 cells stably transfected with EGFR Δ19Del/T790M/C797S; MTS, 48; other: BaF3 cell line stably transfected with EGFR Δ19Del/T790M/C7
Protocol: as §1, §2, §3, §4, §5

[3] = target: T3, various mutants of kinase EGFR (BaF3 cell lines stably transfected with kinase) (Homo sapiens, UniProt P00533, L858R/T790M); conditions: BaF3 cells stably transfected with EGFR L858R/T790M, read-out: IC50, growth inhibition, L858R/T790M
T3 construct: expressed in transfected cells; host or cells: BaF3
Protocol: as §1, §2, §3, §4, §5

[4] = target: T4, various mutants of kinase EGFR (BaF3 cell lines stably transfected with kinase) (Homo sapiens, UniProt P00533); conditions: BaF3 cells stably transfected with EGFR Δ19Del, read-out: IC50, growth inhibition, Δ19Del
T4 construct: other: BaF3 cells stably transfected with EGFR Δ19Del; MTS, 48 h; other: BaF3 cell line stably transfected with EGFR Δ19Del
Protocol: as §1, §2, §3, §4, §5

[5] = target: T5, various mutants of kinase EGFR (BaF3 cell lines stably transfected with kinase) (Homo sapiens, UniProt P00533, C797S/L858R/T790M); conditions: BaF3 cells stably transfected with EGFR L858R/T790M/C797S, read-out: IC50, growth inhibition, L858R/T790M/C797S
T5 construct: expressed in transfected cells; host or cells: BaF3
Protocol: as §1, §2, §3, §4, §5

[6] = target: T6, various mutants of kinase EGFR (BaF3 cell lines stably transfected with kinase) (Homo sapiens, UniProt P00533, L858R); conditions: BaF3 cells stably transfected with EGFR L858R, read-out: IC50, growth inhibition, L858R
T6 construct: expressed in transfected cells; host or cells: BaF3
Protocol: as §1, §2, §3, §4, §5

T6 sequence (P00533 25-1210 L858R): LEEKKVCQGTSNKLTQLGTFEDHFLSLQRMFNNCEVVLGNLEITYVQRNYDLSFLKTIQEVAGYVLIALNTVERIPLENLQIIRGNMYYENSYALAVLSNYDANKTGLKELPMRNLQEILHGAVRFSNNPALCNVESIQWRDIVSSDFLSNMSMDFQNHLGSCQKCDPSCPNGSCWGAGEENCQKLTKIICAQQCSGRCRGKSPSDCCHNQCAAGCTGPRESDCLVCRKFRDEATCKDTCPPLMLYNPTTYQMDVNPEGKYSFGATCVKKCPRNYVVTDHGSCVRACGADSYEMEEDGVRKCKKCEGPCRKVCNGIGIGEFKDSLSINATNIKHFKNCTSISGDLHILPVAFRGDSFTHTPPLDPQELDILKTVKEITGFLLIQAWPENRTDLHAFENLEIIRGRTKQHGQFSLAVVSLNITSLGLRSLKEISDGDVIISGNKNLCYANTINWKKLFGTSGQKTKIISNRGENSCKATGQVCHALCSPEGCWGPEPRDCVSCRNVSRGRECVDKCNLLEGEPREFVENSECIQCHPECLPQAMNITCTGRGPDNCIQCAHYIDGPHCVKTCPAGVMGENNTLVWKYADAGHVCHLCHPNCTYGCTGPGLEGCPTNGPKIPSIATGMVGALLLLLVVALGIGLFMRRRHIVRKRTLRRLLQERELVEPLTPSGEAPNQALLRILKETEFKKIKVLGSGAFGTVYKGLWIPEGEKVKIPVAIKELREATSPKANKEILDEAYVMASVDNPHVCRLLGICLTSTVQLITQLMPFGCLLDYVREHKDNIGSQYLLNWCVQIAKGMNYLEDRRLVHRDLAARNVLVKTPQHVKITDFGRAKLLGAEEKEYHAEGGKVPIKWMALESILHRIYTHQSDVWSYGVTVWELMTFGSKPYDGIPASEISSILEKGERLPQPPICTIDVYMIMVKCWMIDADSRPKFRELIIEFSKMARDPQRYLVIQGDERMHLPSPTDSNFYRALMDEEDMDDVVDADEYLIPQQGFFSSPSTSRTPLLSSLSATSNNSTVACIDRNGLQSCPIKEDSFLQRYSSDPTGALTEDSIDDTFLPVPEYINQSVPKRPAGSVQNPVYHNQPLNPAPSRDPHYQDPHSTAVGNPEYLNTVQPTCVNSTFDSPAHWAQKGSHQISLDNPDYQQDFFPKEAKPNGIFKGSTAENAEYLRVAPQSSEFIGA
T3 sequence (P00533 25-1210 T790M/L858R): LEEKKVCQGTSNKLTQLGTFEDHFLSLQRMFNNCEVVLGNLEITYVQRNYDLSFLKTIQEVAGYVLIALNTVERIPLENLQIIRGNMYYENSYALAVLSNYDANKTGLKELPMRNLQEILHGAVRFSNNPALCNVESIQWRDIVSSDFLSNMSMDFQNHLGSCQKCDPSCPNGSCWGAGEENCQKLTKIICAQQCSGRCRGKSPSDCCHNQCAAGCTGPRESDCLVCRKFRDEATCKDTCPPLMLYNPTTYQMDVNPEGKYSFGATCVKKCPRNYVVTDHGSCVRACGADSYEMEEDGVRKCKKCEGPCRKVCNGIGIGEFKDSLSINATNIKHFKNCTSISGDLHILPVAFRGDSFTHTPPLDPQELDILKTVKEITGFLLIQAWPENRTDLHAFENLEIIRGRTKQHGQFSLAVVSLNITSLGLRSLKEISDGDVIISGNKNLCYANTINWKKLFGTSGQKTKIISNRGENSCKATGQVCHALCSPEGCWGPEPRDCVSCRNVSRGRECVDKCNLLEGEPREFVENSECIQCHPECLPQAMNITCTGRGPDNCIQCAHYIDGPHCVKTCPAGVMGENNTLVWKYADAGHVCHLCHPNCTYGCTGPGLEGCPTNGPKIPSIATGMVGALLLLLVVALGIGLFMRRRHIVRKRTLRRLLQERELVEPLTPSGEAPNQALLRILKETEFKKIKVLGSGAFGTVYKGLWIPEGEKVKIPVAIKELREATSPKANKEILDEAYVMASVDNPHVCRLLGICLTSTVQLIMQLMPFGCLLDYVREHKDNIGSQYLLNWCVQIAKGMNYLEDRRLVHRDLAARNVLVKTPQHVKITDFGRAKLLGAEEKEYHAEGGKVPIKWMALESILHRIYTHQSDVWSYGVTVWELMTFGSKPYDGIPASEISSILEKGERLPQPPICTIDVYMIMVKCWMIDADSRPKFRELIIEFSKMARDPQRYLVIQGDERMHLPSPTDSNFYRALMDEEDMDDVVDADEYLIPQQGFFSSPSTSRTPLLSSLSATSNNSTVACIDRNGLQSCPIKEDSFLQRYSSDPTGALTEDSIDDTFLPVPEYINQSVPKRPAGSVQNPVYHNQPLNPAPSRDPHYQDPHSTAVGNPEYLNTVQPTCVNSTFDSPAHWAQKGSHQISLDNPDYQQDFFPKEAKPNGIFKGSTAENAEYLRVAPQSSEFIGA
T4 sequence (P00533 with tags, fused parts or gaps DEL746-750): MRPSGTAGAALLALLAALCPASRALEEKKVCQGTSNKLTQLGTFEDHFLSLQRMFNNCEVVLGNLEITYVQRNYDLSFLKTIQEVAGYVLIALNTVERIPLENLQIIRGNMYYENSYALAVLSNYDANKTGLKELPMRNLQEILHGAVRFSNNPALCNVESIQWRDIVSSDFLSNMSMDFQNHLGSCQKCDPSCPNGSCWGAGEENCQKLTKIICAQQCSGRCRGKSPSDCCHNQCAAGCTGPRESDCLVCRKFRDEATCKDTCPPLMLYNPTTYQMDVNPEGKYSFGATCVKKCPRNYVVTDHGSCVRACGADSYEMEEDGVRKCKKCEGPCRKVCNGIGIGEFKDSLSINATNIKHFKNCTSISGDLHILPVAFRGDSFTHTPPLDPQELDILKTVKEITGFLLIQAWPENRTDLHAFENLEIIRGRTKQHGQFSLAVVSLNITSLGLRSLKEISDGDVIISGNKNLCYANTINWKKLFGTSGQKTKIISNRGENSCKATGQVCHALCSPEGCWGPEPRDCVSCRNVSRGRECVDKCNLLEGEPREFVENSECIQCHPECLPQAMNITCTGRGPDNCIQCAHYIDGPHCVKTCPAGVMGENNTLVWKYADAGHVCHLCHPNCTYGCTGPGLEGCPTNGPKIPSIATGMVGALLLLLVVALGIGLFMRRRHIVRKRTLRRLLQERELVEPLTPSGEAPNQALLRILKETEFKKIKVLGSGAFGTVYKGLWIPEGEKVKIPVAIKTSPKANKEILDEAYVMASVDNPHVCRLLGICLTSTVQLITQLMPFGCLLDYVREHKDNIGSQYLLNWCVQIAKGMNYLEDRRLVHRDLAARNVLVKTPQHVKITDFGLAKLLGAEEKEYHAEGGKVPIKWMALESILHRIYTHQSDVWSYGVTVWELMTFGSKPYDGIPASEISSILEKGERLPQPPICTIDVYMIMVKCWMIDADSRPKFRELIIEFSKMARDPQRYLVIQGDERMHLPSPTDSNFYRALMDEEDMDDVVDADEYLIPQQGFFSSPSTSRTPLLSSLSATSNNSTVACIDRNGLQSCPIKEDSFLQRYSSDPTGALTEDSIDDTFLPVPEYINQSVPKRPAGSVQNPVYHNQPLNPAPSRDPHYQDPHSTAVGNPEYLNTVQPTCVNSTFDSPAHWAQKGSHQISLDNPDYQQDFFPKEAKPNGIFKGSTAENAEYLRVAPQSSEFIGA
T1 sequence (P00533 with tags, fused parts or gaps DEL746-750/T790M, form open): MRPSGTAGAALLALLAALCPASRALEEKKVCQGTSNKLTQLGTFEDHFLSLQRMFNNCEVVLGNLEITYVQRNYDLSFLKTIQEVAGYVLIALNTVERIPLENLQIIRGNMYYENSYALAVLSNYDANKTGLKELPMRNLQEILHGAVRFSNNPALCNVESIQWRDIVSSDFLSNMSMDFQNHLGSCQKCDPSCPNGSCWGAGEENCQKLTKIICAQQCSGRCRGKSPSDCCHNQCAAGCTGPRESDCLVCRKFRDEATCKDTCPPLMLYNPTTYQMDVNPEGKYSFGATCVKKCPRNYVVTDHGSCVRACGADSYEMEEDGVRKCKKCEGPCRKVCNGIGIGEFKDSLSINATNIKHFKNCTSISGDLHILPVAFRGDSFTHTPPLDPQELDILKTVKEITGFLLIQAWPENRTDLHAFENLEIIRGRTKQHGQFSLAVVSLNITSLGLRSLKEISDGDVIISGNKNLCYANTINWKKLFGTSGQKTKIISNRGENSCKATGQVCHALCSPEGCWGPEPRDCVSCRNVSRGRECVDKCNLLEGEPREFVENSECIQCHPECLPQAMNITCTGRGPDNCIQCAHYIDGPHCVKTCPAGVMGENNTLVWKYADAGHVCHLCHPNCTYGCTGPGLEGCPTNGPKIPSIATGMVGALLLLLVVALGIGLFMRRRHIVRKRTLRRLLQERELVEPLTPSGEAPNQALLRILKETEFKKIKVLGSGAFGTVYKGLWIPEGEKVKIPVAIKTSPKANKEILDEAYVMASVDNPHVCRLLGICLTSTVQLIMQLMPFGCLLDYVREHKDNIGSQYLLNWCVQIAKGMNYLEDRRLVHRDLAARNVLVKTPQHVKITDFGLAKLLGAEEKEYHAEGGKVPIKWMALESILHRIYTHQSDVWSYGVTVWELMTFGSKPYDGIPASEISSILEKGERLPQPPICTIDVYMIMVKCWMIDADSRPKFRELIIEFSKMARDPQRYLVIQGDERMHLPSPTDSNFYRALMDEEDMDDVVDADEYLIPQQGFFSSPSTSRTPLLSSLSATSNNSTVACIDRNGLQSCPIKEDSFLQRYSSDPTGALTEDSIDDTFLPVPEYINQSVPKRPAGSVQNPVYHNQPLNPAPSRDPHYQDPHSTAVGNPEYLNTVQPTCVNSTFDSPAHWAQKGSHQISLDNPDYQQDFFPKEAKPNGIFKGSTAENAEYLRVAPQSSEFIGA

Compound	IC50 [1] [nM]	IC50 [2] [nM]	IC50 [3] [nM]	IC50 [4] [nM]	IC50 [5] [nM]	IC50 [6] [nM]
CCc1cc(Nc2ncc(Br)c(Nc3ccc4nccnc4c3N(CC)S(C)(=O)=O)n2)c(OC(F)(F)F)cc1N1CCC(N2CCN(C)CC2)CC1 [Compound I-96]	50 to 500	≤ 50	50 to 500	50 to 500	≤ 50	50 to 500
CCc1cc(Nc2ncc(Br)c(Nc3ccc4nccnc4c3N(CC)S(C)(=O)=O)n2)c(OC)cc1N1CCC(N(C)C)CC1 [Compound I-97]	≤ 50	≤ 50	≤ 50	≤ 50	≤ 50	≤ 50
CCc1cc(Nc2ncc(Br)c(Nc3ccc4nccnc4c3N(CC)S(C)(=O)=O)n2)c(OC)cc1N1CCC(N(C)C)C1 (stereo not drawn) [Compound I-98]	≤ 50	≤ 50	≤ 50	50 to 500	≤ 50	≤ 50
CCS(=O)(=O)N(C)c1c(Nc2nc(Nc3cc(C)c(N4CCC(N5CCN(C)CC5)CC4)cc3OC)ncc2Br)ccc2nccnc12 [Compound I-99]	≤ 50	≤ 50	≤ 50	≤ 50	≤ 50	≤ 50
CCc1cc(Nc2ncc(Br)c(Nc3ccc4nccnc4c3N(C)S(=O)(=O)CC)n2)c(OC)cc1N1CCC(N2CCN(C)CC2)CC1 [Compound I-100]	≤ 50	≤ 50	≤ 50	≤ 50	≤ 50	≤ 50
CCc1cc(Nc2ncc(Br)c(Nc3ccc4nccnc4c3N(C)S(=O)(=O)CC)n2)c(OC(F)(F)F)cc1N1CCC(N2CCN(C)CC2)CC1 [Compound I-101]	≤ 50	≤ 50	50 to 500	50 to 500	≤ 50	50 to 500
CCc1cc(Nc2ncc(Br)c(Nc3ccc4nccnc4c3N(C)S(=O)(=O)CC)n2)c(OC)cc1N1CCC(N(C)C)CC1 [Compound I-102]	≤ 50	≤ 50	≤ 50	≤ 50	≤ 50	≤ 50
CCc1cc(Nc2ncc(Br)c(Nc3ccc4nccnc4c3N(C)S(=O)(=O)C3CC3)n2)c(OC)cc1N1CCC(N2CCN(C)CC2)CC1 [Compound I-105]	≤ 50	≤ 50	≤ 50	≤ 50	≤ 50	≤ 50
CCc1cc(Nc2ncc(Br)c(Nc3ccc4nccnc4c3N(C)S(=O)(=O)C3CC3)n2)c(OC(F)(F)F)cc1N1CCC(N2CCN(C)CC2)CC1 [Compound I-106]	≤ 50	≤ 50	50 to 500	50 to 500	50 to 500	50 to 500
CCc1cc(Nc2ncc(Br)c(Nc3ccc4nccnc4c3N(C)S(=O)(=O)C3CC3)n2)c(OC)cc1N1CCC(N(C)C)C1 (stereo not drawn) [Compound I-108]	≤ 50	≤ 50	≤ 50	50 to 500	≤ 50	50 to 500
CCc1cc(Nc2ncc(Cl)c(Nc3ccc4nccnc4c3N(CC)S(C)(=O)=O)n2)c(OC)cc1N1CCC(N2CCN(C)CC2)CC1 [Compound I-110]	≤ 50	≤ 50	≤ 50	≤ 50	≤ 50	≤ 50
CCc1cc(Nc2ncc(Cl)c(Nc3ccc4nccnc4c3N(CC)S(C)(=O)=O)n2)c(OC(F)(F)F)cc1N1CCC(N2CCN(C)CC2)CC1 [Compound I-111]	50 to 500	≤ 50	≤ 50	50 to 500	50 to 500	50 to 500
CCc1cc(Nc2ncc(Cl)c(Nc3ccc4nccnc4c3N(CC)S(C)(=O)=O)n2)c(OC)cc1N1CCC(N(C)C)CC1 [Compound I-112]	≤ 50	≤ 50	≤ 50	≤ 50	≤ 50	≤ 50
CCc1cc(Nc2ncc(Cl)c(Nc3ccc4nccnc4c3N(CC)S(C)(=O)=O)n2)c(OC)cc1N1CCC(N(C)C)C1 (stereo not drawn) [Compound I-113]	≤ 50	≤ 50	≤ 50	50 to 500	≤ 50	≤ 50
CCS(=O)(=O)N(C)c1c(Nc2nc(Nc3cc(C)c(N4CCC(N5CCN(C)CC5)CC4)cc3OC)ncc2Cl)ccc2nccnc12 [Compound I-114]	≤ 50	≤ 50	≤ 50	≤ 50	≤ 50	≤ 50
CCc1cc(Nc2ncc(Cl)c(Nc3ccc4nccnc4c3N(C)S(=O)(=O)CC)n2)c(OC)cc1N1CCC(N2CCN(C)CC2)CC1 [Compound I-115]	≤ 50	≤ 50	≤ 50	≤ 50	≤ 50	≤ 50
CCc1cc(Nc2ncc(Cl)c(Nc3ccc4nccnc4c3N(C)S(=O)(=O)CC)n2)c(OC(F)(F)F)cc1N1CCC(N2CCN(C)CC2)CC1 [Compound I-116]	50 to 500	≤ 50	50 to 500	50 to 500	50 to 500	50 to 500
CCc1cc(Nc2ncc(Cl)c(Nc3ccc4nccnc4c3N(C)S(=O)(=O)CC)n2)c(OC)cc1N1CCC(N(C)C)CC1 [Compound I-117]	≤ 50	≤ 50	≤ 50	≤ 50	≤ 50	≤ 50
CCc1cc(Nc2ncc(Cl)c(Nc3ccc4nccnc4c3N(C)S(=O)(=O)CC)n2)c(OC)cc1N1CCC(N(C)C)C1 (stereo not drawn) [Compound I-118]	≤ 50	≤ 50	≤ 50	≤ 50	≤ 50	≤ 50
CCc1cc(Nc2ncc(Cl)c(Nc3ccc4nccnc4c3N(C)S(=O)(=O)C3CC3)n2)c(OC)cc1N1CCC(N2CCN(C)CC2)CC1 [Compound I-120]	≤ 50	≤ 50	≤ 50	≤ 50	≤ 50	≤ 50
CCc1cc(Nc2ncc(Cl)c(Nc3ccc4nccnc4c3N(C)S(=O)(=O)C3CC3)n2)c(OC(F)(F)F)cc1N1CCC(N2CCN(C)CC2)CC1 [Compound I-121]	50 to 500	50 to 500	50 to 500	50 to 500	50 to 500	50 to 500
CCc1cc(Nc2ncc(Cl)c(Nc3ccc4nccnc4c3N(C)S(=O)(=O)C3CC3)n2)c(OC)cc1N1CCC(N(C)C)CC1 [Compound I-122]	≤ 50	≤ 50	≤ 50	≤ 50	≤ 50	≤ 50
CCc1cc(Nc2ncc(Cl)c(Nc3ccc4nccnc4c3N(C)S(=O)(=O)C3CC3)n2)c(OC)cc1N1CCC(N(C)C)C1 (stereo not drawn) [Compound I-123]	50 to 500	≤ 50	≤ 50	50 to 500	50 to 500	50 to 500
COc1cc(N2CCC(N3CCN(C)CC3)CC2)c(C)cc1Nc1ncc(Br)c(Nc2ccc3nccnc3c2N(C)S(=O)(=O)C(F)(F)F)n1 [Compound I-124]	50 to 500	≤ 50	50 to 500	500 to 2500	50 to 500	500 to 2500
CCc1cc(Nc2ncc(Br)c(Nc3ccc4nccnc4c3N(C)S(=O)(=O)C(F)(F)F)n2)c(OC)cc1N1CCC(N2CCN(C)CC2)CC1 [Compound I-125]	50 to 500	≤ 50	50 to 500	500 to 2500	50 to 500	50 to 500
